Measured values reported in patent US7829711B2, “Crystalline materials of 1-(4-benzoyl-piperazin-1-yl)-2-[4-methoxy-7-(3-methyl-[1,2,4]triazol-1-yl)-1H-pyrrolo[2,3-C]pyridine-3-yl]-ethane-1,2-dione” (Bristol-Myers Squibb Company, priority 2004, dated 2010).
Converted amounts (≈) assume the structure as drawn.

Assays:
Type in all cases: physicochemical
pKa of Form P-1 = test: pKa of Form P-1
[1] = Solvent mediated polymorphic transformation (suspension of P-1 crystals in solvents); conditions: room temperature or elevated temperature
[2] = Hygroscopicity of Form P-1
[3] = Aqueous solubility of Form P-1; conditions: aqueous medium

In the case of `COc1cnc(-n2cnc(C)n2)c2[nH]cc(C(=O)C(=O)N3CCN(C(=O)c4ccccc4)CC3)c12` [Form P-1, 1-(4-benzoyl-piperazin-1-yl)-2-[4-methoxy-7-(3-methyl-[1,2,4]triazol-1-yl)-1H-pyrrolo[2,3-c]pyridin-3-yl]-ethane-1,2-dione], the pKa (pKa of Form P-1) is reported as 8.4, the “Phase conversion on suspension in various solvents” value [1] is reported as “did not show any phase conversion” and the “Hygroscopicity: maximum water uptake” value ([2]; at 90% RH) is reported as “RH and 3.2% maximum water uptake at 90% RH)”. The Hygroscopicity ([2]; result in words) was “Low hygroscopicity”, the “Hygroscopicity: weight gain” value ([2]; under 30-60% RH) was 1% and the solubility ([3]; 25 °C, pH 5.7, aqueous buffer) was 2.7 µg/mL (≈ 5.7 µM). For the same molecule, the solubility ([3]; aqueous buffer, pH 8.6, 25° C.) was 14 µg/mL (≈ 29.6 µM) and the solubility ([3]; simulated gastric fluid, pH 1.4, 25° C.) was 12 µg/mL (≈ 25.3 µM).
